# Key:
# [1] = test system: Human acute myeloid leukemia cell line KG1; test: FGFR-dependent tumor cell proliferation inhibition activity test (CCK-8, 72 h); type: cell-based; conditions: Homo sapiens, KG-1, KG1 cells
# From the text: Human acute myeloid leukemia cell line KG1 (FGFR1 fusion protein expressed in the cytoplasm, FGFR1-dependent tumor cell line) (ATCC, Cat. No. CCL-246), cell culture medium RPMI-1640 (Corning Cellgro, No. 10-040-CVR), fetal bovine serum (Life
# Technologies, Cat. No. 10099-141) was purchased from the company; CCK-8 cell counting kit (DOJINDO, Cat. No. FK808). Adjustable wavelength microplate reader (Molecular Device, Cat. No. SpectraMax 190).
# The inhibitory effect of the compound on KG1 proliferation was detected by CCK-8 Cell Counting Kit (Dojindo): Logarithmic growth phase cells were seeded in 96-well culture plate in appropriate density, 90 ul for each well. After cultured overnight, different concentrations of drugs were added and incubated for 72 h, while solvent control well was set (negative control). After the cells were treated by the compound for 72 h, 10 μL of CCK-8 reagent was added to each well. After incubated for 2-4 hours in a 37 □ incubator, the plate was read with SpectraMax 190 microplate reader at wavelength 450 nm.
# The inhibition rate of compounds against cell proliferation is calculated by the following formula:
# Inhibition rate (%)=(OD negative control well-OD administration well)/OD negative control well×100%.
# The IC50 values were obtained by four-parameter regression analysis using the software supplied with the microplate reader.
# [2] = test system: human lung cancer NCI-H1581 transplanted tumor; test: Tumor growth inhibition in tumor-bearing mice (subcutaneously transplanted tumor); type: in vivo, BALB/cA nude mice; conditions: for T/C (%): 13th day; for TV (mm^3, mean ± SD) d0: d0, before dosing
# Protocol: Before using, the compound was diluted with 5% Tween80 in normal saline to the desired concentration (light yellow suspension), and was prepared once a week.
# Before using, the compound was diluted with 1% Tween 80 in normal saline to the desired concentration (white suspension), and was prepared once a week.
# The cell strain was inoculated in the right axilla of the nude mice, and the amount of cells inoculated was 5×10^6/animal to form transplanted tumor, and passaged in vivo in nude mice by 1 generation before use.
# The tumor tissue in the vigorous growth period was cut into 1.5 mm^3, and inoculated subcutaneously in the right axilla of the nude mice under aseptic conditions. The diameter of the subcutaneously transplanted in a nude mice was measured with a vernier caliper, and the animals were randomly grouped when the average volume of tumors was about 220 mm^3. […] The solvent control group was given an equal amount of normal saline. The diameter of the transplanted tumor was measured twice a week during the entire experiment, and the body weights of the mice were weighed. The calculation formula of tumor volume (TV) is: TV=1/2×a×b2, where a and b respectively represent the length and width of the tumor. The relative tumor volume (RTV) was calculated based on the measured results and the formula was: RTV=Vt/V0. Where V0 is the tumor volume measured before grouping and dosing (d0), and Vt is the tumor volume at each measurement.
smiles,measurement,setting,value
"Cc1c(-c2c3c(N)n[nH]c(=O)c3nn2-c2ccc(NC(=O)/C=C/CN(C)C)cc2)oc2ccc(Cl)cc12 [Compound A26, (2E)-N-{4-[4-amino-3-(5-chloro-3-methyl-1-benzofuran-2-yl)-7-carbonyl-6,7-dihydro-2H-pyrazolo[3,4-d]pyridazin-2-yl]phenyl}-4-(dimethylamino)but-2-enamide]",IC50,[1],≤ 100 nM
same,growth of subcutaneously transplanted tumors (in words),[2]; 50 mg/kg and 10 mg/kg intraperitoneally once a day for 13 days,significantly inhibited
same,T/C (%),[2]; A26 10 mg/kg ip qd/13,19.88%
same,body weight (g) d0,[2]; A26 10 mg/kg ip qd/13,18.4 g
same,"TV (mm^3, mean ± SD) d0",[2]; A26 10 mg/kg ip qd/13,161 ± 71 mm^3
same,RTV (mean ± SD),"[2]; A26 10 mg/kg ip qd/13, d13",4.17 ± 2.49
same,"TV (mm^3, mean ± SD) d13","[2]; A26 10 mg/kg ip qd/13, d13",621 ± 289 mm^3
same,body weight (g) d13,"[2]; A26 10 mg/kg ip qd/13, d13",21.3 g
same,T/C (%),[2]; A26 50 mg/kg ip qd/13,2.20%
same,body weight (g) d0,[2]; A26 50 mg/kg ip qd/13,18.2 g
same,"TV (mm^3, mean ± SD) d0",[2]; A26 50 mg/kg ip qd/13,159 ± 69 mm^3
same,RTV (mean ± SD),"[2]; A26 50 mg/kg ip qd/13, d13",0.46 ± 0.19
same,"TV (mm^3, mean ± SD) d13","[2]; A26 50 mg/kg ip qd/13, d13",66 ± 21 mm^3
